What was measured:
5-HT4 receptor = 5-HT4 receptor (Homo sapiens, UniProt Q13639); assay: 5-HT4 receptor binding test
5-HT1A receptor = target: T1, 5-HT1A receptor (Rattus norvegicus, UniProt P19327); assay: 5-HT1A receptor binding test
T1 construct: from tissue
T1 sequence (P19327 1-422): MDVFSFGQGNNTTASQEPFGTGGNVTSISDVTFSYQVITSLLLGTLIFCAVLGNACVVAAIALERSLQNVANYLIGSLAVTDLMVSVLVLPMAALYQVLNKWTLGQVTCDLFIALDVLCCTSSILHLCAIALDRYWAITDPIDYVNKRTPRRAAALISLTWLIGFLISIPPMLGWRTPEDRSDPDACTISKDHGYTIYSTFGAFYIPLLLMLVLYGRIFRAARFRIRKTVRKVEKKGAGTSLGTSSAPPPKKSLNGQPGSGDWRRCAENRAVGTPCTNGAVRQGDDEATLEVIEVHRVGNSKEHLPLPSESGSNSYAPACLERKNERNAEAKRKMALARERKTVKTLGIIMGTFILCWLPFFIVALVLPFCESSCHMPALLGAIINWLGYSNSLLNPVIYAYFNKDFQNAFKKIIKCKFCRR
From the text: In particular, they inhibit 5-HT reuptake. […] Due to a 5-HT-agonistic action and 5-HT reuptake inhibition, serotonin remains in the synaptic cleft for longer and the serotonin action is reinforced. Active ingredients having such properties are therefore particularly suitable as antidepressants and anxiolytics. The compounds of the formula I inhibit the binding of tritiated serotonin ligands to hippocampal receptors (Cossery et al., European J. Pharmacol. 140 (1987), 143-155) and synaptosomal serotonin reuptake (Sherman et al., Life Sci. 23 (1978), 1863-1870).
The 5-HT1A-agonistic action can be measured in vitro, for example, with the aid of the (serotonin) binding test, as described by Matzen et al. (J. Med. Chem., 43 (2000), 1149-57), in particular on page 1156 with reference to Eur. J. Pharmacol., 140 (1987), 143-155. In addition, the 5-HT1A-agonistic action can be measured with the aid of the GTPgammaS test described by Newman-Tancredi et al. (Eur. J. Pharmacol. 307 (1996), 107-11).

5-HT4 receptor, sequence (Q13639 whole entry): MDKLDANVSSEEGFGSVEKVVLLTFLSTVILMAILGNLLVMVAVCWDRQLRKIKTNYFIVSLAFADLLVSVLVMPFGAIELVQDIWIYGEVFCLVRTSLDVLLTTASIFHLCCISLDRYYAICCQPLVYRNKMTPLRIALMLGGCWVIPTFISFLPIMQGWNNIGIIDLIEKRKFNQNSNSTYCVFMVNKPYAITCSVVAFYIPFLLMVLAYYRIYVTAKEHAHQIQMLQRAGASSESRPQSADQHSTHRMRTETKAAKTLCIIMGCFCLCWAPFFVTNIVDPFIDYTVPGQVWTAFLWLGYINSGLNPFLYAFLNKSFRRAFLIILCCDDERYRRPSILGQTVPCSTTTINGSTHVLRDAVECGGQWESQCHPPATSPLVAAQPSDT

IC50 (5-HT4 receptor): 21 nM
IC50 (5-HT1A receptor): 96 nM
Structure (SMILES): Cn1cc(CCCCN2CCN(c3ccc4oc(C(N)=O)cc4c3)CC2)c2cc(C#N)ccc21 [Example 1, 5-{4-[4-(5-cyano-1-methyl-1H-indol-3-yl)butyl]piperazin-1-yl}-benzofuran-2-carboxamide]

Reference: US20060160824A1, “Indole derivatives as serotonin reuptake inhibitors” (priority 2003, published 2006)
